Experimental data published in US10793563B2, “GCN2 inhibitors and uses thereof” (Merck Patent GmbH, priority 2018, dated 2020).

These compounds were tested against GCN2 kinase (Homo sapiens (Human), UniProt Q9P2K8) (assay: GCN2 Enzyme Inhibition Assay (Transcreener ADP2 fluorescence polarization)). Conditions: 280 μM ATP, 200 μM (RS)7 peptide, 4 nM GCN2, 25° C.
Assay type: biochemical
Method in brief: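 Transcreener ADP2 fluorescence polarization detection of ADP from 4 nM GCN2 with (RS)7 substrate in 25 mM Tris-HCl pH 7.5, 50 mM NaCl, 10 mM MgCl2, 1 mM DTT. Compound pre-incubated with enzyme 10 min at 25 °C; reaction started by ATP, run 1 h at 25 °C. IC50 and Ki(app) by tight-binding fit.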

GCN2 kinase, sequence (Q9P2K8 whole entry): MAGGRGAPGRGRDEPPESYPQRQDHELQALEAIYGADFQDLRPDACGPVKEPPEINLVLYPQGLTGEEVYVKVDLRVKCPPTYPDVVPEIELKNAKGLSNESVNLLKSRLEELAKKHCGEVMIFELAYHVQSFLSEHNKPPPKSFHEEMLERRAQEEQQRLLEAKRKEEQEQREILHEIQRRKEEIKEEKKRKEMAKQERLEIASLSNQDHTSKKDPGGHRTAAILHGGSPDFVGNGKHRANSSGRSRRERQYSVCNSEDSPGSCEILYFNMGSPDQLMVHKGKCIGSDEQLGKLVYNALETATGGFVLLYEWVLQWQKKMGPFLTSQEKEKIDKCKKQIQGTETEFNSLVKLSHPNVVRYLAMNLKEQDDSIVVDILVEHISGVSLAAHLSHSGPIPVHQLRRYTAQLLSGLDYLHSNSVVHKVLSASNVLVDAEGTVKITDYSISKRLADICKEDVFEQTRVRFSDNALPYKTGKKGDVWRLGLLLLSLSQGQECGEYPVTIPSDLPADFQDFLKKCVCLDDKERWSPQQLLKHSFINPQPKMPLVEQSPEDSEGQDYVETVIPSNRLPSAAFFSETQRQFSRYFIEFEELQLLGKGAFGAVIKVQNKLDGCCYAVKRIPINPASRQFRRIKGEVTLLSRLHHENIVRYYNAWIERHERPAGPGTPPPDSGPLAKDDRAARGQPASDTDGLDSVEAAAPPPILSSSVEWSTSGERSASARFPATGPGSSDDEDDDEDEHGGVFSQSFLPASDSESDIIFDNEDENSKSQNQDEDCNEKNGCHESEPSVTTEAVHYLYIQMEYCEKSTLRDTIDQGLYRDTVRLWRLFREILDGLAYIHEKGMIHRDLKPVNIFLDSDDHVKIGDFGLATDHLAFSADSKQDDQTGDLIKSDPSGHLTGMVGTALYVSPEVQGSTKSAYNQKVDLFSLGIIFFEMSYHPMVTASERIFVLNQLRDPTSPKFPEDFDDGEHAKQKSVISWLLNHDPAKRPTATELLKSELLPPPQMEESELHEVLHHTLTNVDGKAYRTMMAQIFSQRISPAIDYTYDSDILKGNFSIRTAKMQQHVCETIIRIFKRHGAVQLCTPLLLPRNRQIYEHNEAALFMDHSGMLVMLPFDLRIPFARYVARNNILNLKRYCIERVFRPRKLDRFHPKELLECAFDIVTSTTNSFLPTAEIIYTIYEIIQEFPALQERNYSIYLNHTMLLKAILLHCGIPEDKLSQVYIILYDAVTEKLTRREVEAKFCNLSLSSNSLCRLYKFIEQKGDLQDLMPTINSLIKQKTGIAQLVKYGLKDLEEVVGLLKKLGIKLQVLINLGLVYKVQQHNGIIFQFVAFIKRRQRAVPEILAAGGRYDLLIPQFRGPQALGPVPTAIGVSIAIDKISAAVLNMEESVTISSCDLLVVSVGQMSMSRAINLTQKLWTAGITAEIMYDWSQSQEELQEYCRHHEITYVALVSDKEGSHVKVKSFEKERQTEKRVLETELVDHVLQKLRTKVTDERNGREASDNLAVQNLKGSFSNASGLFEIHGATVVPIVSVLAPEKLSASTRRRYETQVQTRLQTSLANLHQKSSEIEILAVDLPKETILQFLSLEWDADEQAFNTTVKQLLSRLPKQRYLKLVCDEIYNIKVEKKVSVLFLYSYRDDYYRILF

| SMILES | IC50 [nM] |
| --- | --- |
| NC(=O)[C@H]1CCCN(c2nccc(-c3cnc4ccc(C(F)(F)F)cn34)n2)C1 [I-153, (S)-1-(4-(6-(trifluoromethyl)imidazo[1,2-a]pyridin-3-yl)pyrimidin-2-yl)piperidine-3-carboxamide] | < 10 |
| FC(F)(F)c1ccc2ncc(-c3nccc(N4CCN(C5CC6(COC6)C5)[C@@H](c5cn[nH]c5)C4)n3)n2c1 [I-502, (S)-3-(4-(3-(1H-pyrazol-4-yl)-4-(2-oxaspiro[3.3]heptan-6-yl)piperazin-1-yl)pyrimidin-2-yl)-6-(trifluoromethyl)imidazo[1,2-a]pyridine] | 10 to 100 |
| O=C(C1CC12CC2)N1CCN(c2ccnc(-c3cnc4ccc(C(F)(F)F)cn34)n2)CC1c1cn[nH]c1 (stereo not drawn) [I-468, (2-(1H-pyrazol-4-yl)-4-(2-(6-(trifluoromethyl)imidazo[1,2-a]pyridin-3-yl)pyrimidin-4-yl)piperazin-1-yl)(spiro[2.2]pentan-1-yl)methanone] | 100 to 1000 |
| Cc1nnc(C2CN(c3ccnc(-c4cnc5ccc(C(F)(F)F)cn45)n3)CCN2)[nH]1 (stereo not drawn) [I-337, 3-(4-(3-(5-methyl-4H-1,2,4-triazol-3-yl)piperazin-1-yl)pyrimidin-2-yl)-6-(trifluoromethyl)imidazo[1,2-a]pyridine] | 100 to 1000 |
| O=C(O)C1CN(c2ccnc(-c3cnc4ccc(C(F)(F)F)cn34)n2)CC(F)(F)C1 (stereo not drawn) [I-205, 5,5-Difluoro-1-[2-(6-trifluoromethyl-imidazo[1,2-a]pyridin-3-yl)-pyrimidin-4-yl]-piperidine-3-carboxylic acid] | 10 to 100 |
| O=C(C1CCOCC1)N1CCN(c2ccnc(-c3cnc4ccc(C(F)(F)F)cn34)n2)CC1c1cn[nH]c1 (stereo not drawn) [I-487, (2-(1H-pyrazol-4-yl)-4-(2-(6-(trifluoromethyl)imidazo[1,2-a]pyridin-3-yl)pyrimidin-4-yl)piperazin-1-yl)(tetrahydro-2H-pyran-4-yl)methanone] | 100 to 1000 |
| Cc1[nH]ncc1[C@@H]1CN(c2ccnc(-c3cnc4cc(F)c(C5CC5)cn34)n2)C[C@H](C)O1 [I-429, (2S,6R)-4-(2-(6-cyclopropyl-7-fluoroimidazo[1,2-a]pyridin-3-yl)pyrimidin-4-yl)-2-methyl-6-(5-methyl-1H-pyrazol-4-yl)morpholine] | < 10 |
| CC(C)(C)OC(=O)C1(O)CCCN(c2ccnc(-c3cnc4ccc(C(F)(F)F)cn34)n2)C1 (stereo not drawn) [I-212, tert-butyl 3-hydroxy-1-(2-(6-(trifluoromethyl)imidazo[1,2-a]pyridin-3-yl)pyrimidin-4-yl)piperidine-3-carboxylate] | 100 to 1000 |
| Cc1nonc1C(=O)N1CCN(c2ccnc(-c3cnc4ccc(C(F)(F)F)cn34)n2)CC1c1cn[nH]c1 (stereo not drawn) [I-518, (2-(1H-pyrazol-4-yl)-4-(2-(6-(trifluoromethyl)imidazo[1,2-a]pyridin-3-yl)pyrimidin-4-yl)piperazin-1-yl)(4-methyl-1,2,5-oxadiazol-3-yl)methanone] | 10 to 100 |
| COC(=O)C1CC12CCCN(c1ccnc(-c3cnc4ccc(Cl)cn34)n1)C2 (stereo not drawn) [I-133, methyl 5-(2-(6-chloroimidazo[1,2-a]pyridin-3-yl)pyrimidin-4-yl)-5-azaspiro[2.5]octane-1-carboxylate] | 100 to 1000 |
| FC(F)(F)c1ccc2ncc(-c3nccc(N4CCN(CC5CC56CC6)C(c5cn[nH]c5)C4)n3)n2c1 (stereo not drawn) [I-475, 3-(4-(3-(1H-pyrazol-4-yl)-4-(spiro[2.2]pentan-1-ylmethyl)piperazin-1-yl)pyrimidin-2-yl)-6-(trifluoromethyl)imidazo[1,2-a]pyridine] | 10 to 100 |
| Cc1nn(C)cc1[C@H]1CN(c2nccc(-c3cnc4ccc(C(F)(F)F)cn34)n2)C[C@@H](C)O1 [I-158, (2S,6R)-2-(1,3-dimethyl-1H-pyrazol-4-yl)-6-methyl-4-(4-(6-(trifluoromethyl)imidazo[1,2-a]pyridin-3-yl)pyrimidin-2-yl)morpholine] | 10 to 100 |

Same assay, conditions: Ki(app); 280 μM ATP, 200 μM (RS)7 peptide, 4 nM GCN2, 25° C.

| SMILES | Ki [nM] |
| --- | --- |
| O=C1NCC2CN(c3ccnc(-c4cnc5ccc(C(F)(F)F)cn45)n3)CCN12 (stereo not drawn) [I-43, 7-[2-[6-(Trifluoromethyl)imidazo[1,2-a]pyridin-3-yl]pyrimidin-4-yl]-1,2,5,6,8,8a-hexahydroimidazo[1,5-a]pyrazin-3-one] | < 10 |
| O=C1CCN(c2ccnc(-c3cnc4ccc(Cl)cn34)n2)CCN1 [I-26, 1-[2-(6-Chloroimidazo[1,2-a]pyridin-3-yl)pyrimidin-4-yl]-1,4-diazepan-5-one] | 100 to 1000 |

Each compound was assayed against intracellular GCN2 (phosphorylation of the GCN2 substrate eIF2α) (Homo sapiens (Human), UniProt Q9P2K8) (assay: GCN2 Cellular Inhibition Assay (AlphaScreen SureFire P-eIF2α Ser51, borrelidin-treated U2OS cells)). Conditions: 10 μM borrelidin, 1 h, phosphorylated eIF2α Ser51, read-out: GCN2 Biomarker (IC50).
intracellular GCN2 (phosphorylation of the GCN2 substrate eIF2α), sequence (Q9P2K8 whole entry): as above
Assay type: cell-based
Description: Compounds can be screened for their ability to inhibit intracellular GCN2 using an AlphaScreen assay (Perkin Elmer) to detect phosphorylation of the GCN2 substrate eIF2α in borrelidin-treated cells. U2OS cells are plated at 5,000 cells per well in 384-well white polystyrene plates (Corning 3570) in McCoy's 5A media (GIBCO 26600-023) supplemented with 10% foetal bovine serum (SAFC 12103C), Penicillin/Streptomycin solution diluted 1:100 (Sigma P0781), and 2 mM L-glutamine (Sigma G7513), and allowed to adhere overnight at 37° C. in 5% CO2. Compounds are then added to the cell media from a final concentration of 40 μM in 4-fold serial dilutions. Borrelidin (FluoroChem M01440) is immediately added to the wells to a final concentration of 10 μM and the cells are incubated for 1 h at 37° C. in 5% CO2. After 1 h of treatment with borrelidin, the media is removed, and the cells are lysed with lysis buffer (TGR BioSceinces TGRLB) at ambient temperature.
An AlphaScreen SureFire P-eIF2α (Ser51) assay kit (Perkin Elmer TGREIF2S) was used to measure levels of eIF2α phosphorylated on Serine 51. Anti-phosphorylated eIF2α Ser51 antibody-linked acceptor beads (TGR BioScience 6760617) are added to the cell homogenate (diluted 1:250 into a mixture of activation (TGR BioScience TGRAB) and reaction buffer (TGR BioScience TGREIF2S) prepared immediately before use). The plate is then incubated for 2 h at ambient temperature in the dark. Anti-eIF2α antibody-linked donor beads (TGR BioScience 6760617) were then added (diluted 1:100 in dilution buffer (TGR BioScience TGRDB) prepared immediately before use). The plate is then incubated overnight at ambient temperature in the dark.
Plates are analyzed on an Alpha Technology-compatible PHERAstar FS plate reader (BMG Labtech Version 1.14) to quantify phosphorylated eIF2α Ser51 levels. The percentage inhibition of phosphorylated eIF2α is calculated by comparison to control wells stimulated with borrelidin alone.

| SMILES | IC50 [nM] |
| --- | --- |
| O=C1NCC2CN(c3ccnc(-c4cnc5ccc(C(F)(F)F)cn45)n3)CCN12 (stereo not drawn) [I-43, 7-[2-[6-(Trifluoromethyl)imidazo[1,2-a]pyridin-3-yl]pyrimidin-4-yl]-1,2,5,6,8,8a-hexahydroimidazo[1,5-a]pyrazin-3-one] | 500 to 5000 |
| NC(=O)[C@H]1CCCN(c2nccc(-c3cnc4ccc(C(F)(F)F)cn34)n2)C1 [I-153, (S)-1-(4-(6-(trifluoromethyl)imidazo[1,2-a]pyridin-3-yl)pyrimidin-2-yl)piperidine-3-carboxamide] | < 500 |
| FC(F)(F)c1ccc2ncc(-c3nccc(N4CCN(C5CC6(COC6)C5)[C@@H](c5cn[nH]c5)C4)n3)n2c1 [I-502, (S)-3-(4-(3-(1H-pyrazol-4-yl)-4-(2-oxaspiro[3.3]heptan-6-yl)piperazin-1-yl)pyrimidin-2-yl)-6-(trifluoromethyl)imidazo[1,2-a]pyridine] | < 500 |
| C[C@@H]1CN(c2nccc(-c3cnc4ccc(C(F)(F)F)cn34)n2)C[C@H](c2cn[nH]c2)O1 (relative stereo) [I-117, cis-2-Methyl-6-(1H-pyrazol-4-yl)-4-{4-[6-(trifluoromethyl)imidazo[1,2-a]pyridin-3-yl]pyrimidin-2-yl}morpholine] | < 500 |
| C[C@H]1C[C@@H](c2cn[nH]c2)CN(c2nccc(-c3cnc4ccc(C(F)(F)F)cn34)n2)C1 (mixture of isomers) [I-114, 2-[3-methyl-5-(1H-pyrazol-4-yl)piperidin-1-yl]-4-[6-(trifluoromethyl)imidazo[1,2-a]pyridin-3-yl]pyrimidine] | < 500 |
| FC(F)(F)c1ccc2ncc(-c3nccc(N4CCN(C[C@H]5CC56CC6)[C@@H](c5cn[nH]c5)C4)n3)n2c1 [I-553, 3-(4-((S)-3-(1H-pyrazol-4-yl)-4-(((S)-spiro[2.2]pentan-1-yl)methyl)piperazin-1-yl)pyrimidin-2-yl)-6-(trifluoromethyl)imidazo[1,2-a]pyridine] | < 500 |
| FC(F)(F)c1ccc2ncc(-c3ccnc(N4CCOC(c5cn[nH]c5)C4)n3)n2c1 (stereo not drawn) [I-10, 2-(1H-pyrazol-4-yl)-4-(4-(6-(trifluoromethyl)imidazo[1,2-a]pyridin-3-yl)pyrimidin-2-yl)morpholine] | < 500 |
| O=S1(=O)CC2(CC(N3CCN(c4ccnc(-c5cnc6ccc(C(F)(F)F)cn56)n4)C[C@@H]3c3cn[nH]c3)C2)C1 [I-556, (S)-6-(2-(1H-pyrazol-4-yl)-4-(2-(6-(trifluoromethyl)imidazo[1,2-a]pyridin-3-yl)pyrimidin-4-yl)piperazin-1-yl)-2-thiaspiro[3.3]heptane 2,2-dioxide] | 500 to 5000 |
| FC(F)(F)c1ccc2ncc(-c3ccnc(N4CCOC(c5cn[nH]c5)C4)n3)n2c1 (stereo not drawn) [I-44, 2-(1H-Pyrazol-4-yl)-4-[4-[6-(trifluoromethyl)imidazo[1,2-a]pyridin-3-yl]pyrimidin-2-yl]morpholine] | < 500 |
| FC(F)(F)c1ccc2ncc(-c3nccc(N4CCOC(c5cn[nH]c5)C4)n3)n2c1 (stereo not drawn) [I-2, 1H-Pyrazol-4-yl-4-[2-[6-(trifluoromethyl)imidazo[1,2-a]pyridin-3-yl]pyrimidin-4-yl]morpholine] | < 500 |
| Cc1[nH]ncc1[C@H]1CN(c2nccc(-c3cnc4ccc(C(F)(F)F)cn34)n2)C[C@@H](C)O1 (relative stereo) [I-115, cis-2-Methyl-6-(3-methyl-1H-pyrazol-4-yl)-4-{4-[6-(trifluoromethyl)imidazo[1,2-a]pyridin-3-yl]pyrimidin-2-yl}morpholine] | < 500 |
| FC(F)(F)c1ccc2ncc(-c3nccc(N4CCN(C[C@@H]5CC56CC6)[C@@H](c5cn[nH]c5)C4)n3)n2c1 [I-554, 3-(4-((S)-3-(1H-pyrazol-4-yl)-4-(((R)-spiro[2.2]pentan-1-yl)methyl)piperazin-1-yl)pyrimidin-2-yl)-6-(trifluoromethyl)imidazo[1,2-a]pyridine] | < 500 |
| Cc1n[nH]cc1[C@H]1CN(c2ccnc(-c3cnc4ccc(C(F)(F)F)cn34)n2)C[C@@H](C)O1 [I-120] | < 500 |
| FC(F)(F)c1ccc2ncc(-c3nccc(N4CCOC(c5cn[nH]c5)C4)n3)n2c1 (stereo not drawn) [I-3, 1H-pyrazol-4-yl-4-[2-[6-(trifluoromethyl)imidazo[1,2-a]pyridin-3-yl]pyrimidin-4-yl]morpholine] | < 500 |
| C[C@@H]1CN(c2nccc(-c3cnc4ccc(C(F)(F)F)cn34)n2)C[C@H](c2cn[nH]c2)O1 [I-118] | < 500 |
| FC(F)(F)c1ccc2ncc(-c3nccc(N4CCN(C[C@@H]5CC56CC6)[C@H](c5cn[nH]c5)C4)n3)n2c1 [I-552, 3-(4-((R)-3-(1H-pyrazol-4-yl)-4-(((R)-spiro[2.2]pentan-1-yl)methyl)piperazin-1-yl)pyrimidin-2-yl)-6-(trifluoromethyl)imidazo[1,2-a]pyridine] | < 500 |
